According to PMC10054553, “Development of the First ^18F-Labeled Radiohybrid-Based Minigastrin Derivative with High Target Affinity and Tumor Accumulation by Substitution of the Chelating Moiety” (Pharmaceutics, 2023):

What was measured:
[1] = target: Human serum albumin (HSA) (Homo sapiens, UniProt P02768); assay: Human serum albumin (HSA) binding, ultracentrifugation method; format: in vitro ADME; details: HSA 700 µM in PBS, 37 °C, 30 min, n = 6, corrected for unspecific binding
Protocol: Human serum albumin (HSA) binding was determined in analogy to a previously published ultracentrifugation method. Therefore, the peptides of interest were incubated in a solution of HSA (700 µM in phosphate-buffered saline) at 37 °C for 30 min (n = 6). All values were corrected for unspecific binding.

[2] = target: T1, CCK-2R (Rattus norvegicus, UniProt P30553); assay: CCK-2R-mediated internalization on AR42J cells; format: cell-based; details: for Internalization Values (%F11N) 6 h: relative to the reference DOTA-PP-F11N; for Internalization Values (%) 1 h / Internalization Values (%) 2 h / Internalization Values (%) 4 h / Internalization Values (%) 6 h: % of applied activity, 37 °C, 0.25 pmol/well, AR42J cells
T1 construct: CCK-2R-expressing rat pancreatic cancer cells AR42J; host or cells: AR42J (rat pancreatic cancer cells)
T1 sequence (P30553 1-452): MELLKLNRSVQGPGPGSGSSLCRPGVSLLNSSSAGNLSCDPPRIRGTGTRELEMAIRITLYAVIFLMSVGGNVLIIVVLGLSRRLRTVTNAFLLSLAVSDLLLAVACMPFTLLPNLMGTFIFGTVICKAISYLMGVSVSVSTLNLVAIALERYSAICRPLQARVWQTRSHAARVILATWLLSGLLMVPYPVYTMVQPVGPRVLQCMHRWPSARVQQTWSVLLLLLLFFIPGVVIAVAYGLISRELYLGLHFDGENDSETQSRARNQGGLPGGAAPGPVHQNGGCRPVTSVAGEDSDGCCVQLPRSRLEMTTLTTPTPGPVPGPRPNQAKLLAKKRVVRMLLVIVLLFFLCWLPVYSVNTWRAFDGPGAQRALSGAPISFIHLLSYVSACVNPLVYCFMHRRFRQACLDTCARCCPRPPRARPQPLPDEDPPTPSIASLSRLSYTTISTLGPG
Protocol: Figure 3 (a) CCK-2R-mediated internalization (0.25 pmol/well) measured on AR42J cells as percent (%) of applied activity (incubation at 37 °C for 1, 2, 4 and 6 h, RPMI 1640, 5 mm L-Gln, 5 mL non-essential amino acids (100×), 10% FCS + 5% BSA (v/v), 3.0 × 10^5 cells/mL/well). (b) CCK-2R-mediated internalization of [^177Lu]Lu-DOTA-rhCCK-16 (green), [^177Lu]Lu-(R)-DOTAGA-rhCCK-16 (orange), [^177Lu]Lu-DOTA-rhCCK-18 (red) and […] after incubation at 37 °C for 6 h as percent of reference (% of [^177Lu]Lu-DOTA-PP-F11N). * data taken from Holzleitner et al..
Cell Culture. CCK-2R-expressing rat pancreatic cancer cells AR42J (CLS GmbH, Eppelheim, Germany) were cultivated in monolayers in CELLSTAR® cell culture flasks acquired from Greiner Bio-One GmbH (Frickenhausen, Germany) at 37°C in a humidified atmosphere (5% CO2) using a HERAcell 150i-Incubator (Thermo Fisher Scientific Inc., Waltham, United States). The nutrient medium RPMI 1640 medium, supplemented with 5 mM L-Gln 5 mL non-essential amino acids (100×) and 10% FCS, was used. Furthermore, a Dulbecco’s PBS solution with 0.1% EDTA (v/v) was applied to detach the cells for cell passaging. The detached cells were counted using a Neubauer hemocytometer (Paul Marienfeld, Lauda-Königshofen, Germany). In addition, all operations under sterile conditions were accomplished using a MSC-Advantage safety workbench (Thermo Fisher Scientific Inc., Waltham, United States). […]
Internalization Studies. For the determination of the internalization kinetics of the various peptides, AR42J cells (3.0 × 10^5 cells/well) were seeded into polylysine-coated 24-well plates, adding 1 mL of nutrient medium. Afterwards, the cells were incubated for 24 ± 2 h at 37°C in a humidified atmosphere […]
On the day of the experiment, the medium was removed, and each well was washed with nutrient medium (300 μL). Afterwards 200 μL of nutrient medium, 25 μL of the 177Lu-labeled peptide (0.3 pmol, n = 6) and either 25 μL of nutrient medium for internalization studies ( n = 3) or 25 μL of [natLu]Lu-DOTA-PP-F11N (10 μmol) for competition studies ( n = 3) were added. Thereafter, the assay was incubated for various time points (1, 2, 4 and 6 h) at 37°C in a humidified atmosphere (5% CO2). After incubation, the cells were put on ice for at least 1 min to stop internalization kinetics and the supernatant was collected. Then, the cells were washed with an ice-cold nutrient medium (300 μL) and both fractions were unified. In order to displace the peptides from the cell membrane, 300 μL of an ice-cold glycine buffer (1 M, pH = 2.2) were added and the cells were incubated on ice for 15 min. Afterwards, the supernatant was collected, and the cells were washed with an ice-cold glycine buffer (300 μL, 1 M, pH = 2.2) while both fractions were unified. After lysis of the cells with NaOH (300 μL, 1 N) for 15 min, the respective wells were washed with NaOH (300 μL, 1 N) and both fractions were unified. The radioactivity of the supernatant, the acid wash and the lysed fractions were quantified using a γ-counter.
Lipophilicity Studies. Lipophilicity (depicted as octanol-phosphate-buffered saline solution (PBS, pH = 7.4) distribution coefficient, logD7.4) was determined by dissolving the 177Lu-labelled peptide (approx. 1 MBq) in a mixture (1/1, v/v) of n-octanol and PBS. The suspension was vortexed in a reaction vial (1.5 mL) for 3 min at room temperature and the vial was centrifuged at 9000 rpm for 5 min (Biofuge 15, Heraus Sepatech GmbH, Osterode, Germany). Amounts of 200 μL aliquots of both layers were measured separately in a γ-counter (Perkin Elmer, Waltham, MA, USA). The experiment was repeated […]
Stability Studies in Human Serum. The 177Lu- as well as 67Ga-labeled CCK-2R ligands (1 nmol, approx. 5 MBq) were incubated for 24 h in human serum (200 μL) at 37 °C. After incubation, ice-cold EtOH (125 μL) and MeCN (375 μL) were added and the suspension was centrifuged for 5 min at […]
5000 rpm. […]

[3] = Stability studies in human serum; format: in vitro ADME; details: 37 °C, 24 h; for Intact peptide (%): n = 3, 1440 min; for SiOH-containing analog (%): n = 3, analog with hydrolyzed SiFA moiety
Protocol: In vitro stability studies in human serum after incubation at 37 °C for 24 h were performed as described in the Supplemental Material.
Stability Studies in Human Serum. The 177Lu- as well as 67Ga-labeled CCK-2R ligands (1 nmol,
approx. 5 MBq) were incubated for 24 h in human serum (200 μL) at 37 °C. After incubation, ice-cold
EtOH (125 μL) and MeCN (375 μL) were added and the suspension was centrifuged for 5 min at
5000 rpm. Then, the supernatant was transferred into new vials and centrifuged for another 5 min at
5000 rpm. After separating the precipitate from the solution, the stability of the ligands was determined

Human serum albumin (HSA), sequence (P02768 25-609): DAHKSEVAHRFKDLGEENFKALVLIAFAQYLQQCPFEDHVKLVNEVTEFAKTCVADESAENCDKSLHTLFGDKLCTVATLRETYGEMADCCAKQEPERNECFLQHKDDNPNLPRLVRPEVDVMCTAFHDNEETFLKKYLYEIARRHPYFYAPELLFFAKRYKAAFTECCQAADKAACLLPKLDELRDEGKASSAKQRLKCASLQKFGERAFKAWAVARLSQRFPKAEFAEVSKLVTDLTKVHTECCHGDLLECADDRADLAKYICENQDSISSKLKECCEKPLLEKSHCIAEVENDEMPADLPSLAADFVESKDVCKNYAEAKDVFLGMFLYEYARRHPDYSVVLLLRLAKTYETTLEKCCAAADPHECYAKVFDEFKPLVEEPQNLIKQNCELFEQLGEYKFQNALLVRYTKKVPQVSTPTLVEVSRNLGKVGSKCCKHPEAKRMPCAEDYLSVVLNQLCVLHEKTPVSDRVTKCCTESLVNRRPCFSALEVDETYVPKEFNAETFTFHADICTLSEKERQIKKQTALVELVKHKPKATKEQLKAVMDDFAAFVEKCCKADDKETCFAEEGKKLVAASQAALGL

| Structure (SMILES) | HSA Binding (%) [1] | HSA Binding (%) ([1]; listed as [^177Lu]Lu-DOTA-rhCCK-18) | Internalization Values (%F11N) 6 h [2] | Internalization Values (%) 1 h [2] | Internalization Values (%) 2 h [2] | Internalization Values (%) 4 h [2] | Internalization Values (%) 6 h [2] | Intact peptide (%) [3] | SiOH-containing analog (%) [3] | SiOH-containing analog (%) ([3]; listed as [177Lu]Lu-DOTA-rhCCK-16) |
| --- | --- | --- | --- | --- | --- | --- | --- | --- | --- | --- |
| CCCC[C@H](NC(=O)[C@H](Cc1c[nH]c2ccccc12)NC(=O)CNC(=O)[C@H](Cc1ccc(O)cc1)NC(=O)[C@H](C)NC(=O)CC[C@@H](NC(=O)CC[C@@H](NC(=O)CC[C@@H](NC(=O)CC[C@@H](NC(=O)CC[C@@H](NC(=O)CC[C@@H](NC(=O)CC[C@@H](NC(=O)CC[C@@H](NC(=O)[C@@H](CNC(=O)c1ccc([Si](F)(C(C)(C)C)C(C)(C)C)cc1)NC(=O)CN1CCN(CC(=O)O)CCN(CC(=O)O)CCN(CC(=O)O)CC1)C(=O)O)C(=O)O)C(=O)O)C(=O)O)C(=O)O)C(=O)O)C(=O)O)C(=O)O)C(=O)N[C@@H](CC(=O)O)C(=O)N[C@@H](Cc1ccccc1)C(N)=O [[^19F]F-[^177Lu]Lu-DOTA-rhCCK-18] [metal not drawn] | 62.6% | 62.6% | 244 ± 7 %F11N | 15.4 ± 1.4% | 24.1 ± 1.6% | 41.6 ± 2.6% | 54.8 ± 1.5% | 25.3 ± 3.1% | 67.7 ± 3.1% |  |
| CCCC[C@H](NC(=O)[C@H](Cc1c[nH]c2ccccc12)NC(=O)CNC(=O)[C@H](Cc1ccc(O)cc1)NC(=O)[C@H](C)NC(=O)CC[C@@H](NC(=O)CC[C@@H](NC(=O)CC[C@@H](NC(=O)CC[C@@H](NC(=O)CC[C@@H](NC(=O)CC[C@@H](NC(=O)[C@@H](CNC(=O)c1ccc([Si](F)(C(C)(C)C)C(C)(C)C)cc1)NC(=O)CN1CCN(CC(=O)O)CCN(CC(=O)O)CCN(CC(=O)O)CC1)C(=O)O)C(=O)O)C(=O)O)C(=O)O)C(=O)O)C(=O)O)C(=O)N[C@@H](CC(=O)O)C(=O)N[C@@H](Cc1ccccc1)C(N)=O [[^177Lu]Lu-DOTA-rhCCK-16, metal not drawn] | 89.1% |  | 215 ± 7 %F11N | 19.5 ± 2.3% | 33.1 ± 1.7% | 43.9 ± 0.7% | 51.1 ± 1.7% | 21.8 ± 0.8% |  | 69.1 ± 1.0% |
